For 20 compounds, IC50 results are on record in patent publication US20240208997A1, “CYCLIC BENZIMIDAZOLE DERIVATIVES AS CGAS INHIBITORS” (Boehringer Ingelheim International GmbH, priority 2022, published 2024).

pIC50: −log10 of the molar value.

Sequence of cGAS (Q8N884 whole entry): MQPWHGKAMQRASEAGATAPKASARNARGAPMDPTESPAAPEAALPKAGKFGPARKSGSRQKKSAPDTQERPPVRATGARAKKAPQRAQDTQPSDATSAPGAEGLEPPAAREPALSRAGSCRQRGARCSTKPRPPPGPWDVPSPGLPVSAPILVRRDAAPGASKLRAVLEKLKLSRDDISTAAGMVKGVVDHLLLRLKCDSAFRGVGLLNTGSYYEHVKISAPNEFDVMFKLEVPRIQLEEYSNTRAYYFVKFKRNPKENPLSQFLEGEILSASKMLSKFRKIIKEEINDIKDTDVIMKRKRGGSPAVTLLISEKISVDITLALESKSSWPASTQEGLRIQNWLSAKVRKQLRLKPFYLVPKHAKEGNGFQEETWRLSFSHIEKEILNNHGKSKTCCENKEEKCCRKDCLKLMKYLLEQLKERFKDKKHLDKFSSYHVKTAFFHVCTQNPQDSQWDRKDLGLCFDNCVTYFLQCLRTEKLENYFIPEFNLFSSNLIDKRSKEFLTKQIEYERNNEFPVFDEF

The experiment has as its target cGAS (Homo sapiens, UniProt Q8N884). Description: Human cGAS enzyme assay (hcGAS IC50, in vitro), cGAMP formation by RapidFire MS. The arrangement: HumancGAS (amino acid 1-522) with an N-terminal 6×-His-tag and SUMO-tag; 6xHis (N); SUMO (N); made in house; host or cells: E. coli BL21(DE3) pLysS. The experiment is classed as biochemical. Conditions: Table 1; 45 bp dsDNA-activated enzyme. How it is done:
6.1 Method: Human cGAS Enzyme Assay (hcGAS IC50 (In Vitro))
Human cGAS enzyme was incubated in the presence of a 45 base pair double stranded DNA to activate the enzyme and GTP and ATP as substrates. Compound activity was determined by measuring the effect of compounds on the formation of the product of the enzyme reaction, cGAMP, which is measured by a mass spectrometry method.
HumancGAS (amino acid 1-522) with an N-terminal 6×-His-tag and SUMO-tag was expressed in E. coli BL21(DE3) pLysS (Novagen) cells for 16 h at 18° C. Cells were lysed in buffer containing 25 mM Tris (pH 8), 300 mM NaCl, 10 mM imidazole, 10% glycerol, protease inhibitor cocktail (cOmplete™, EDTA-free, Roche) and DNase (5 μg/mL). […] Purified protein was concentrated to 1.7 mg/mL and stored at −80° C.
Compounds were delivered in 10 mM DMSO solution, serially diluted and transferred to the 384 well assay plate (Greiner #781201) using an Echo acoustic dispenser. Typically, 8 concentrations were used with the highest concentration at 10 μM in the final assay volume followed by ^˜1:5 dilution steps. DMSO concentration was set to 1% in the final assay volume. The 384 well assay plate contained 22 test compounds (column 1-22), and DMSO in column 23 and 24.
After the compound transfer, 15 μL of the enzyme-DNA-working solution (12 nM cGAS, 0.32 μM 45base pair DNA in assay buffer, 10 mM Tris pH 7.5/10 mM KCl/5 mM MgCl2/1 mM DTT) were added to each well from column 1-23 via a MultiDrop Combi dispenser. In column 24, 15 μl of assay buffer without enzyme/DNA were added as a low control.
The plates were then pre-incubated for 60 min at room temperature.
Following that, 10 μL of GTP (ThermoFisher #R0461)-ATP (Promega #V915B) mix in assay buffer were added to the assay plate (columns 1-24, 30 μM final concentration each) using a Multidrop Combi.
The plates were incubated again for 90 min at room temperature.
Following the incubation, the reaction was stopped by 80 μL of 0,1% formic acid in assay buffer containing 5 nM cyclic-di-GMP (Sigma #SML1228) used as internal standard for the mass spectrometry. The total volume/well was 105 μL.
The plates were centrifuged at 4000 rpm, 4° C., for 5 min.
The RapidFire autosampler was coupled to a binary pump (Agilent 1290) and a Triple Quad 6500 (ABSciex, Toronto, Canada). […] Aspiration time: 250 ms; Load time: 3000 ms; Elute time: 3000 ms; Wash volume: 500 μL.
The MS was operated in positive ion mode with HESI ion source, with a source temperature of 550 C, curtain gas=35, gas 1=65, and gas 2=80. Unit mass resolution in SRM mode. The following transitions and MS parameters (DP: declustering potential and CE: collision energy) for cGAMP and DicGMP were determined:
Internal standard: cyclic-di-GMP at 690.1/540, DP=130, CE=30.
The formation of cGAMP was monitored and evaluated as ratio to cyclic-di-GMP.
Data Evaluation and Calculation:
For data evaluation and calculation, the measurement of the low control was set as 0% control and the measurement of the high control was set as 100% control. The IC50 values were calculated using the standard 4 parameter logistic regression formula. Calculation: [y=(a−d)/(1+(x/c)^b)+d], a=low value, d=high value; x=conc M; c=1C50 M; b=slope
In turn, `O=C(O)[C@@H]1C[C@H]2CN1c1nc(nc3c1oc1ccccc13)CCOCCCC(=O)N1CCC(CC1)n1c(nc3cc(F)ccc31)O2` [Example 1.03] had a pIC50 of 8.25. In the case of `C[C@H]1CN2CC[C@@H]1n1c(nc3ccccc31)O[C@H]1C[C@@H](C(=O)O)N(C1)c1nc(nc3c1oc1cc(Cl)ccc13)C(F)(F)CCCCCC2=O` [Example 1.16], the pIC50 is 8.48. For the compound `Cc1cccc2c1nc1n2[C@@H]2CCN(C[C@H]2C)C(=O)CCCCCC(F)(F)c2nc(c3oc4ccccc4c3n2)N2C[C@H](C[C@H]2C(=O)O)O1` [Example 1.27], the pIC50 is 7.00. Next, `C[C@H]1CN2CC[C@@H]1n1c(nc3ccccc31)O[C@H]1C[C@@H](C(=O)O)N(C1)c1nc(nc3c1oc1ccccc13)C(F)(F)COCCCC2=O` [Example 4.01]: 8.77; `C[C@H]1CN2CC[C@@H]1n1c(nc3ccc(Cl)cc31)O[C@H]1C[C@@H](C(=O)O)N(C1)c1nc(nc3c1oc1ccccc13)CCOCCCC2=O` [Example 1.06]: 8.49; `CC1CCc2nc(c3oc4ccccc4c3n2)N2C[C@H](C[C@H]2C(=O)O)Oc2nc3cc(Cl)ccc3n2[C@H]2CCN(C[C@@H]2C)C(=O)CCO1` (some centres unmarked) [Example 1.20]: 8.31.

`C[C@H]1CN2CC[C@@H]1n1c(nc3cc(Cl)ccc31)O[C@H]1C[C@@H](C(=O)O)N(C1)c1nc(nc3c1oc1ccccc13)CCOCCCC2=O` [Example 1.02]: the pIC50 is 8.55. `C[C@H]1CN2CC[C@@H]1n1c(nc3cc(Cl)ccc31)O[C@H]1C[C@@H](C(=O)O)N(C1)c1nc(nc3c1oc1ccccc13)C(F)(F)OCCCCC2=O` [Example 6.01] gave a pIC50 of 8.46. Next, `C[C@H]1CN2CC[C@@H]1n1c(nc3ccccc31)O[C@H]1C[C@@H](C(=O)O)N(C1)c1nc(nc3c1oc1cc(F)ccc13)C(F)(F)CCCCCC2=O` [Example 1.14]: 8.39; `C[C@@H]1CCCCC(=O)N2CCC(CC2)n2c(nc3ccccc32)O[C@H]2C[C@@H](C(=O)O)N(C2)c2nc1nc1c2oc2ccccc21` [Example 1.26]: 8.47.

As for `C[C@H]1CN2CC[C@@H]1n1c(nc3ccccc31)O[C@H]1C[C@@H](C(=O)O)N(C1)c1nc(nc3c1oc1ccccc13)CCCCCOC2=O` [Example 10.02], the pIC50 is 7.47. Next, `C[C@H]1CN2CC[C@@H]1n1c(nc3cc(F)ccc31)O[C@H]1C[C@@H](C(=O)O)N(C1)c1nc(nc3c1oc1cc(F)ccc13)C(F)(F)CCCCCC2=O` [Example 1.15]: 8.46. The compound `C[C@H]1CN2CC[C@@H]1n1c(nc3cc(Cl)ccc31)O[C@H]1C[C@@H](C(=O)O)N(C1)c1nc(nc3c1oc1ccccc13)C(F)(F)CCCOCC2=O` [Example 1.21] gave a pIC50 of 8.48. For the compound `C[C@H]1CN2CC[C@@H]1n1c(nc3ccc(Cl)cc31)O[C@H]1C[C@@H](C(=O)O)N(C1)c1nc(nc3c1oc1ccccc13)C(F)(F)CCCCCC2=O` [Example 1.13], the pIC50 is 8.21. Regarding `C[C@H]1CN2CC[C@@H]1n1c(nc3cc(Cl)ccc31)O[C@H]1C[C@@H](C(=O)O)N(C1)c1nc(nc3c1oc1cc(Cl)ccc13)CCOCCCC2=O` [Example 1.08], the pIC50 was 8.35. Compound `Cc1cccc2c1nc1n2[C@H]2CCN(C[C@@H]2C)C(=O)CCCCCC(F)(F)c2nc(c3oc4ccccc4c3n2)N2C[C@H](C[C@H]2C(=O)O)O1` [Example 1.28] showed a pIC50 of 7.96. As for `C[C@H]1CCCCC(=O)N2CCC(CC2)n2c(nc3ccccc32)O[C@H]2C[C@@H](C(=O)O)N(C2)c2nc1nc1c2oc2ccccc21` [Example 1.25], the pIC50 was 8.26.

The compound `C[C@H]1CN2CC[C@@H]1n1c(nc3ccccc31)O[C@H]1C[C@@H](C(=O)O)N(C1)c1nc(nc3c1oc1ccccc13)CCOCCOC2=O` (mixture of isomers) [Example 12.01] had a pIC50 of 8.05. In turn, `O=C(O)[C@@H]1C[C@H]2CN1c1nc(nc3c1oc1ccccc13)COCCCCCC(=O)N1CCC(CC1)n1c(nc3cccc(F)c31)O2` [Example 5.01] showed a pIC50 of 8.26. Consider `O=C(O)[C@@H]1C[C@H]2CN1c1nc(nc3c1oc1ccccc13)CCOCCCC(=O)N1CCC(CC1)n1c(nc3ccc(F)cc31)O2` [Example 1.04], for which the negative-log IC50 (pIC50) is 8.35.
